Data published in article PMC6770469, “IDE Degrades Nociceptin/Orphanin FQ through an Insulin Regulated Mechanism” (International Journal of Molecular Sciences, 2019).
Where a SMILES comes first, the peptide text is derived from it. Where no end group is shown, it is not given here. [ ]: non-standard residue; d: D form. The star is where a group is joined. Sta = CC(C)C[C@H](N)[C@@H](O)CC(=O)O; Isovaleryl = CC(C)CC(=O)*

Columns and labels:
[1] = tested on: rat spinal cord peptidases; experiment: OFQ/N cleavage by rat spinal cord homogenate with peptidase inhibitors (MALDI-MS); assay type: biochemical; conditions: rat spinal cord extract, 20 mM Tris-HCl 1 mM EDTA pH 7.8, 37 °C, 30 min; for inhibition of the cleavage of OFQ/N into the bioactive fragments (1-11), (1-7), (1-6): TPCK 1 mM, PMSF 1 mM, NEM 1 mM (Figure 6); for inhibition of the formation of the (1-11) fragment from OFQ/N: PHMB 0.25 mM, pepstatin A 0.01 mM (Figure 6)
Method: Tissue homogenate preparation: One rat spinal cord tissue was homogenized in 1 mL of ice-cold 20 mM Tris-HCl (Sigma, Milan, Italy) and 1 mM EDTA (Sigma, Milan, Sigma) using mechanical homogenizer. The obtained homogenate was centrifuged at 5000× g for 15 min at 4 °C. The supernatant was then centrifuged at 20,000× g for 15 min at 4 °C. Finally, the supernatant was divided into small aliquots and kept frozen at −80 °C [13].
Tissue extract (supernatant) incubation assays: Incubations were performed using one microliter of tissue extract diluted with 19 µL of 20 mM Tris-HCl 1 mM EDTA buffer pH 7.8 and 10 µL of Milli-Q water. Then, the reaction was initiated by the addition of 10 µL of OFQ/N 0.3 mM and continued at 37 °C for 30 min. Then, 40 µL of ice-cold methanol was used to stop the reaction. Incubation was repeated as mentioned above but adding different peptidase inhibitors. The inhibitors used for the incubation were: TPCK (tosyl phenylalanyl chloromethyl ketone) 1 mM, PMSF (phenylmethylsulfonyl fluoride) 1 mM, NEM (N-ethylmaleimide) 1 mM, PHMB (4-(hydroxymercuri)benzoic acid) 0.25 mM, pepstatin A 0.01 mM, and Ag^+ 1 mM. Enzyme assay including spinal cord homogenate was also validated using dynorphin B, as described previously. One microliter aliquots taken from each incubation mixture were analyzed using MALDI mass spectrometry. α-Cyano-4-hydroxycinnamic acid (4-HCCA) was used as matrix, and the final samples were spotted onto AnchorChip™ plate (Bruker Daltonics, 2013). The standard used for the calibration of the instrument is the Peptide Calibration Standard II by Bruker Daltonics, Macerata, Italy. Details and parameters of the instrument set-up were: mass range: 340–4000 Da; detector gain/reflector: 6.3x (2480 V); sample rate and digitizer settings: 2.50 GS/s; smartbeam parameter set: 4_large; positive ion mode; matrix suppression: off; random walk: complete sample; shots at raster spot: 200; limit diameter to: 800 µm; laser power: 20%; shots: 5000.

mouse = conditions: cited from earlier work
[2] = molecular target: T1, insulin-degrading enzyme (IDE) (Homo sapiens, UniProt P14735); experiment: IDE degradation assays (time-course hydrolysis of the substrate, UPLC-HRMS); assay type: in vitro ADME
T1 construct: purchased Giotto Biotech, Florence, Italy
T1 sequence (P14735 whole entry, species assumed): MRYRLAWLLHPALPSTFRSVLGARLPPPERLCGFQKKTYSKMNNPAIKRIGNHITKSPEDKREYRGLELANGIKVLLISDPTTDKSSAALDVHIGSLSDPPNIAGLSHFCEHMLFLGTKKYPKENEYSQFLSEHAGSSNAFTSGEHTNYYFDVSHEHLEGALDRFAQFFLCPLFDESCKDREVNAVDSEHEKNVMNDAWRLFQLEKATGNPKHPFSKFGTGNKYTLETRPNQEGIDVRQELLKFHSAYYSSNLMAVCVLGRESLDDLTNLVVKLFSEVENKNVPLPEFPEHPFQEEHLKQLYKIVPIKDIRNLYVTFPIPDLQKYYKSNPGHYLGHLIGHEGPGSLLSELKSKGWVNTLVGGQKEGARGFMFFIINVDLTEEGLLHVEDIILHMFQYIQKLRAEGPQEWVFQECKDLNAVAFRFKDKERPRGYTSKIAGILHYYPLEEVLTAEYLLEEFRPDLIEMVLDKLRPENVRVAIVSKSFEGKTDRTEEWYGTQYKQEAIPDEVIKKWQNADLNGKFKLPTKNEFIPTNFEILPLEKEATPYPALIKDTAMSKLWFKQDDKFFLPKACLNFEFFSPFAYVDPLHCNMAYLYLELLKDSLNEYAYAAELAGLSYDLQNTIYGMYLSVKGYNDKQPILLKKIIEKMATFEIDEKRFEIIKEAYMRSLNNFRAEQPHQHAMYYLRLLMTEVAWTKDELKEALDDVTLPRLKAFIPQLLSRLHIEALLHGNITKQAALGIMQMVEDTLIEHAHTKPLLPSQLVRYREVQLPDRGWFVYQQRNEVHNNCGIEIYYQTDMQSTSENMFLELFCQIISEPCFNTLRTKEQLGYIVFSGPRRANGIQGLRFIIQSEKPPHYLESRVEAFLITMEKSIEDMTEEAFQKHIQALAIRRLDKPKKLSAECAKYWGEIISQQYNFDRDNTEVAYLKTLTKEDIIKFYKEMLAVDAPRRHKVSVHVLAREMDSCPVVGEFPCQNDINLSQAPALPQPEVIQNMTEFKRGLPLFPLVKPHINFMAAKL
Method: IDE degradation assays: Insulin (Ins, 2 µM, purchased from Sigma, Milan, Italy) and nociceptin peptide (OFQ/N, 2 µM, synthesized by the Fmoc solid phase synthesis and purified in our laboratory using RP HPLC) were tested for their purity using electrospray mass spectrometry (over 98% purity), and hydrolyzed in the presence of insulin-degrading enzyme (IDE, 30 nM, purchased from Giotto Biotech, Florence, Italy) in phosphate buffer 1 mM (pH 7.4, Sigma). We applied 1-16 sequence of OFQ/N because there is no difference in binding of this fragment to NOP receptors. Ins and OFQ/N were hydrolyzed both separately and in a mixture. Moreover, a pre-incubation of OFQ/N with IDE for 20 min was also performed before the addition of Ins. In order to quench the reaction, the samples were diluted 1:1 with 1% TFA aqueous solution.
The peptide content of all samples was analyzed using a Q Exactive hybrid quadrupole-Orbitrap mass spectrometer (Thermo Scientific, Milan, Italy) coupled to an Ultimate 3000 HPLC RSLCnano system (Dionex Thermo Scientific, Milan, Italy) through an EASY-Spray source (Thermo Scientific, Milan, Italy) by using the instrument settings previously reported.

For `CCN1C(=O)C=CC1=O` [NEM, N-ethylmaleimide], the “inhibition of the cleavage of OFQ/N into the bioactive fragments (1-11), (1-7), (1-6)” value (from here on “inhibition of the cleavage … (1-6)”) [1] was “does not show inhibition”.

With `O=C(O)c1cc[c]([Hg][OH])cc1` [PHMB, 4-(hydroxymercuri)benzoic acid] the “inhibition of the formation of (1-7) and (1-6) from OFQ/N” value ([1]; PHMB 0.25 mM (Figure 6)) was “inhibits” and the “inhibition of the formation of the (1-11) fragment from OFQ/N” value [1] was “blocks the formation of the (1-11)fragment more than all the other inhibitors”.

With `O=S(=O)(F)Cc1ccccc1` [PMSF, phenylmethylsulfonyl fluoride] the “inhibition of the cleavage … (1-6)” value [1] was “not efficiently inhibited”.

In the case of `CC(C)CC(=O)N[C@H](C(=O)N[C@H](C(=O)N[C@@H](CC(C)C)[C@@H](O)CC(=O)N[C@@H](C)C(=O)N[C@@H](CC(C)C)[C@@H](O)CC(=O)O)C(C)C)C(C)C` [Pepstatin A] (Isovaleryl-VV[Sta]A[Sta]-OH), the “inhibition of the formation of the (1-11) fragment from OFQ/N” value [1] is reported as “slightly inhibits”.

In the case of `Cc1ccc(S(=O)(=O)N[C@@H](Cc2ccccc2)C(=O)CCl)cc1` [TPCK, tosyl phenylalanyl chloromethyl ketone], the “inhibition of the cleavage … (1-6)” value [1] is reported as “not efficiently inhibited”.

For “(1-6): OFQ/N fragment (1-6), final product from (1-11) (FGGFTG; Nociceptin; UniProt Q13519 130-135, looked up, fragment)”, the “effect in different analgesic tests (bi-phasic)” value (mouse; after ICV (Intracerebroventricular) and intrathecal injection, as reported in the literature) is listed as “antinociception followed by a hyperalgesia”.

For “(1-7): OFQ/N fragment (1-7), bioactive shorter sequence (FGGFTGA; Nociceptin; UniProt Q13519 130-136, looked up, fragment)”, the “effect on hyperalgesia induced by OFQ/N” value (mouse; injected in mice) is listed as “blocks hyperalgesia”.

In the case of “FGGFTGARKSARKLAN [OFQ/N, Nociceptin/Orphanin 1-16]”, the “time within which the substrate was almost completely degraded by IDE” value ([2]; OFQ/N 2 µM alone, IDE 30 nM, phosphate buffer 1 mM pH 7.4, 37 °C, LC-MS (Figure 3A)) is reported as no more than 10 min, the “OFQ/N content as % of the original value” ([2]; OFQ/N and Ins 1:1 molar ratio (2 µM each) co-incubated with IDE 30 nM, phosphate buffer 1 mM pH 7.4, 37 °C, 30 min reaction, LC-MS (Figure 3B)) is reported as 80% and the “content of OFQ/N, fold lower than its starting value” ([2]; after 20 min pre-incubation of OFQ/N 2 µM with IDE 30 nM at 37 °C, before addition of Ins, phosphate buffer 1 mM pH 7.4, LC-MS (Figure 4A)) is reported as 5 fold.
